# According to US6380177B1, “LPA analogs as agonists of the Edg2 LPA receptor” (Atairgin Technologies, Inc., priority 1999, dated 2002):
# “Also recorded” adds a separate entry of the source.
# Legend:
# Edg2 receptor [1] = molecular target: T1, Edg2 receptor (Homo sapiens, UniProt Q92633); assay: FUS1::lacZ reporter assay in yeast expressing the Edg2 receptor; type: cell-based; settings: for activation of FUS1::lacZ by 18:1 analogs (FIG. 4): 200 μM LPA or LPA analog, 18:1 acyl LPA as 100%
# T1 construct: expressed in transfected cells; host or cells: Saccharomyces cerevisiae JEY5 + pJE15
# T1 sequence (Q92633 whole entry): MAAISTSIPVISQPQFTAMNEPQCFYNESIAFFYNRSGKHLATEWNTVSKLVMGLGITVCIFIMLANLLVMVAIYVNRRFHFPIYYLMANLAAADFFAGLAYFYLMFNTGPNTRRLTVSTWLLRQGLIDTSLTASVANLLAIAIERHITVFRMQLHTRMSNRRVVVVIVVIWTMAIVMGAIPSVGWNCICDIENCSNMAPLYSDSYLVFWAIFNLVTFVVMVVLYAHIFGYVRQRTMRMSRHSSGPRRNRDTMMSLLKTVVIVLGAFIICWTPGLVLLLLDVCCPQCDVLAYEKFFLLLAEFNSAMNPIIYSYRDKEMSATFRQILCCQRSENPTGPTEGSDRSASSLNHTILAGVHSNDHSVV
# Text: A yeast expressing the Edg2 receptor is one way to avoid such problems of multiple receptors. Edg2 has been functionally expressed in the yeast Saccharomyces cerevisiae and provides a facile system with which to analyze this particular receptor. Edg2 couples to the yeast pheromone response pathway selectively in response to exogenously added LPA and activates two easily assayed reporter genes, lacZ and HIS3, that are fused to the pheromone-inducible FUS1 promoter. […] Although the yeast assay is relatively insensitive to LPA compared with mammalian signaling events (the yeast assay has an E.C.50 of 20 μM), yeast offers the advantage of specificity; the induction of FUS1::lacZ by LPA is absolutely dependent on the Edg2 receptor being expressed.
# LacZ assays in response to lysophosphatidic acid and LPA analogs- JEY5+pJE15 was grown on SC media containing either 2% galactose or 2% glucose lacking uracil to an approximate O.D. of 0.1-0.5 prior to the addition of lipid or α-factor. Acyl-LPA chain length analogs; 6:0, 10:0, 14:0, 16:0, 18:0, 18:1 and 24:1 (Avanti Polar Lipids) were stored dissolved in chloroform and dried down under vacuum immediately prior to experiments and resuspended in BBS/EDTA (50 mM NH4HCO3, 104 mM NaCl, 250 μM EDTA2Na pH 7.63) at 20 mM with sonication until the solution was clear. The other analogs that were custom synthesized for this report were stored in 100% ethanol at −20° C., dried and resuspended in BBS/EDTA immediately prior to use. Analogs not having a phosphate were stored in 100% DMSO and added directly to the yeast culture. […] Cells were grown for 7 hours prior to assaying at which time 100 μl of yeast culture were then added to […] assay buffer (60 mM Na2HPO4, 40 mM NaH2PO4, 10 mM KCl, 0.1 mM MgSO4, pH 7.0 plus 2.7 mL β-mercaptoethanol per liter) plus 50 μl 0.1% SDS+three drops Chloroform. Cells were vortexed for 10 seconds and incubated for 5 minutes at 28° C. 200 μl of 4mg/ml o-nitrophenol-β-D-galactopyranoside (ONPG, Sigma) was added and the reaction was incubated 30 minutes at 28° C. The assay was stopped by the addition of 500 μl 1M Na2CO3. Color development was measured at A420 and normalized to A600. Units were expressed as Miller Units. Competition assays between 18:1 acyl-LPA and the short chain analogs were essentially performed in the same manner except that both lipids were added simultaneously and the yeast was allowed to grow for the standard seven-hour time period. ERK immune complex kinase assays- C3H/10T½ cells were cultured in Basal Medium Eagle (BME, Gibco)+10% heat inactivated fetal calf serum until quiescent in 6 cm dishes. Cultures were serum starved for 18 hours in BME and stimulated with LPA or an LPA analog for 5 minutes. Dishes were placed on ice, washed with ice cold PBS and lysed in 500 μL lysis buffer (20 mM Tris pH8.0, 137 mM NaCl, 1mM EGTA, 1% Triton X-100, 10% glycerol, 15 mM MgCl2, 1 mM NaVO4, 50 mM NaF, 1mM Pefabloc, 20 μM Leupeptin, 10 μg/mL Aprotinin). To 200 μg total protein, 2 μL anti-ERK1 and 2 μL anti-ERK2 (Santa Cruz) plus 20 μL protein G-agarose beads (Boehringer-Mannheim, 50% slurry) were added and incubated with continuous rocking for two hours at 4° C. The agarose bead-ERK immune complexes were washed twice with 1mL lysis buffer then once in 1mL kinase buffer (30 mM Tris pH 8.0, 20 mM MgCl2, 2 mM MnCl2) and then drained to dryness with a fine gauge Hamilton syringe. The kinase reaction was started by adding 30 μL kinase buffer containing 2 μg myelin basic protein (MBP, Sigma), 10 μM cold ATP and 2.5 μCi [^32P]γ-ATP (Amersham). The reaction was incubated for 25 minutes at 30° C. and then stopped by the addition of 10 μL hot 4×-sample buffer. The phosphorylated MBP was resolved on a 14% SDS-PAGE gel (Novex), stained, dried and the Coomassie Brilliant Blue-stained band was excise and counted on a liquid scintillation counter (Beckman).
# ERK1 and ERK2 = assay: ERK immune complex kinase assay in C3H/10T½ fibroblasts; type: cell-based, Murine; settings: C3H/10T½ fibroblasts treated with 10M analogue, stimulated 5 minutes
# Description: Since Edg2 couples to Gpa1, this receptor could also couple to Gi in mammalian cells as well. […] Murine C3H/10T½ fibroblasts were treated with […] analogue and assayed for induction of ERK½ activity. […] The structural requirements of LPA with respect to ERK activation are quite different from the yeast Edg2 lacZ reporter assay. For example, the hydroxyl on the sn-2 carbon of the glycerol can be substituted with little effect in the Edg2-mediated activation of FUS1::lacZ whereas in ERK activation, loss of this hydroxyl almost completely abolishes activity.
# LacZ assays in response to lysophosphatidic acid and LPA analogs- JEY5+pJE15 was grown on SC media containing either 2% galactose or 2% glucose lacking uracil to an approximate O.D. of 0.1-0.5 prior to the addition of lipid or α-factor. […] Color development was measured at A420 and normalized to A600. Units were expressed as Miller Units. […] The phosphorylated MBP was resolved on a 14% SDS-PAGE gel (Novex), stained, dried and the Coomassie Brilliant Blue-stained band was excise and counted on a liquid scintillation counter (Beckman).
# Edg2 receptor [2] = molecular target: T1, Edg2 receptor; settings: cited from earlier work; for activation of FUS1::lacZ (previously known): yeast expressing the Edg2 receptor, previously known results
# MDA MB 231 cells [3] = settings: cited from earlier work
# MDA MB 231 cells [4] = settings: cited from earlier work; remark: listed apart in the source
# ERK = ERK activity in A549 lung carcinoma overexpressing Edg2 mRNA; type: cell-based; settings: overexpresses Edg2 mRNA
# Text: Edg2 is not involved in the activation of the MAPKinase ERK. This is somewhat surprising since Edg2 coupled to the endogenous Saccharomyces G-protein, it was reasonable to conclude that Edg2 may couple to mammalian Gi heterotrimeric G-proteins. If this were true, then Edg2 would activate ERK, which is activated by LPA in a pertusis toxin-dependent manner. However, the SAR of LPA for ERK activation is completely different from the SAR of LPA-mediated activation of FUS1::lacZ and calcium mobilization. It is unlikely that expressing this receptor in yeast has changed its ligand binding characteristics. The somatostatin 2A receptor when expressed in yeast maintains it's binding profiles when compared with mammalian cells.
Molecule,activation of FUS1::lacZ by 18:1 analogs (FIG. 4) (Edg2 receptor [1]),activation of FUS1::lacZ (previously known) (Edg2 receptor [2]),also measured
"CCCCCCCC/C=C\CCCCCCCC(=O)OCC(COP(=O)(OC)OC)OC (racemic) [Compound 18, Dimethyl 3-O-oleoyl-2-O-methyl-rac-glycero-1-phosphate]",had less lacZ activity,,
CCCCCC(=O)OC[C@@H](O)COP(=O)(O)O [Compound 1],,inactive,
CCCCCCCCCC(=O)OC[C@@H](O)COP(=O)(O)O [Compound 2],,inactive,
"CCCCCCCCCCCCCC(=O)OC[C@@H](O)COP(=O)(O)O [Compound 3, reference compound]",,,"activation of FUS1::lacZ, dependence on acyl chain length (FIG. 2) (Edg2 receptor [1]; yeast expressing the Edg2 receptor, acyl-LPA chain length analogs): inactive"
CCCCCCCCCCCCCCCC(=O)OC[C@@H](O)COP(=O)(O)O [Compound 4],,significant activity,
CCCCCCCCCCCCCCCCCC(=O)OC[C@@H](O)COP(=O)(O)O [Compound 5],,significant activity,
CCCCCCCC/C=C\CCCCCCCC(=O)OC[C@@H](O)COP(=O)(O)O [Compound 6],,most active,
"CCCCCCCC/C=C\CCCCCCCC(=O)OCCCO [Compound 10, 3-Hydroxypropyl oleate]",still retained some lacZ activity,,
"CCCCCCCC/C=C\CCCCCCCC(=O)OCCCOP(=O)(O)O [Compound 12, 1-(3-propyl oleoate) phosphate]",retained some FUS1::lacZ activity; also recorded: increased activity significantly; also recorded: does activate FUS1::lacZ,,activation of ERK½ (FIG. 5) (ERK1 and ERK2): does not activate ERK; inhibition of cAMP accumulation (MDA MB 231 cells [3]): does not inhibit cAMP accumulation; calcium mobilization (MDA MB 231 cells [4]): only slightly mobilizes calcium
O-acyl-2-hydroxyl-sn-glycero-3-phosphate [LPA],,,"stimulation of ERK activity (ERK): does not stimulate ERK activity; EC50 (Edg2 receptor [2]; yeast expressing Edg2, FUS1::lacZ reporter, read-out: E.C.50 of the yeast assay): 20 µM"

# More lines, main results first:
activation of FUS1::lacZ by 18:1 analogs (FIG. 4) (Edg2 receptor [1]),Molecule,activation of FUS1::lacZ (previously known) (Edg2 receptor [2]),also measured
still retained some lacZ activity,"CCCCCCCC/C=C\CCCCCCCC(=O)OCC(CO)OC (racemic) [Compound 17, 1-O-Oleoyl-2-O-methyl-rac-glycerol]",,
retained some FUS1::lacZ activity,"CCCCCCCC/C=C\CCCCCCCC(=O)OCC(Br)COP(=O)(O)O (racemic) [Compound 23, 3-O-Oleoyl-2-deoxy-2-bromo-rac-glycero-1-phosphate]",,
inactive,"CCCCCCCC/C=C\CCCCCCCCOCC(O)COP(=O)(O)O (racemic) [Compound 26, 3-O-Oleyl-rac-glycero-1-phosphate]",,activation of ERK½ (FIG. 5) (ERK1 and ERK2): can activate ERK almost as well as the ester form
inactive,"CCCCCCCC/C=C\CCCCCCCCOCC(COP(=O)(O)O)OC (racemic) [Compound 36, 3-O-Oleyl-2-O-methyl-rac-glycero-1-phosphate]",,
had less lacZ activity,"CCCCCCCC/C=C\CCCCCCCC(=O)OCCCOP(=O)(OC)OC [Compound 11, Dimethyl 1-(3-propyl oleoate) phosphate]",,
inactive,"CCCCCCCC/C=C\CCCCCCCCOCCCOP(=O)(OC)OC [Compound 29, Dimethyl 3-oleyloxypropyl-1-phosphate]",,
